Measured values taken from patent US20040009170A1, “Alpha-melanocyte stimulating hormone peptides protection in organ transplantation” (priority 2002, published 2004).

Legend:
[1] = test system: donor cardiac grafts (Brown Norway) transplanted into recipient (Lewis) rats; assay: Heterotopic heart transplantation in rats: allograft survival; type: in vivo, rat
Text: Adult inbred Brown Norway (donor) and Lewis (recipient) male rats, weighing 200-300 g were used in this study (Charles River, Calco, Italy). Animals were maintained at the animal care facilities of the Department of Hepatology, Ospedale Maggiore di Milano, Italy, under standard temperature, humidity, and time-regulated light conditions. Water and food were provided ad libitum. All animals received care in compliance with the Principles of Laboratory Animal Care, formulated by the National Society of Medical Research, and the Guide for the Care and Use of Laboratory Animals, prepared by the National Academy of Sciences and published by the National Institutes of Health (NIH Publication No. 8623, revised 1985).
Before transplantation, animals were anesthetized with an intraperitoneal injection of 125-mg/kg ketamine. During anesthesia, heart rate, ventilation rate, and temperature were closely monitored. Donor cardiac grafts (Brown Norway) were transplanted into the abdominal cavity of the recipient (Lewis) rats using the technique described by Ono and Lindsey. […] Graft function was monitored by palpation through the abdominal wall twice daily. […]
Statistical analysis was performed using SigmaStat statistical software (Jandel Scientific GmbH, Germany). Values are expressed as mean±SEM. […] Difference in median graft survival time was evaluated using the Mann-Whitney Rank Sum Test. […]

[2] = test system: heart grafts (Brown Norway into Lewis rats); assay: Histopathological evaluation and ED1 immunohistochemistry of heart grafts; type: in vivo, rat
Protocol: Experiments were performed to determine whether NDP-α-MSH treatment prolongs allograft survival. For this purpose, NDP-α-MSH or saline was administered from the time of transplantation until spontaneous rejection. In such experiments (n=7), rats were sacrificed when there was loss of palpable contractile activity of the graft. Studies were performed focusing on the influence of NDP-α-MSH on graft histopathology and transcripts involved in inflammation and rejection. For these studies, rats (n=6) were sacrificed 1 or 4 days after transplantation. NDP-α-MSH or saline was administered from day 0 until the sacrifice.
Heart grafts, removed from rats on day 1, 4, or at the time of rejection, were sectioned coronally. Two sections were snap-frozen in liquid nitrogen and stored at −80° C. for RNA extraction and RT-PCR assays. One section was fixed in 10% buffered formalin and paraffin-embedded for light microscopy examination.
Histopathological evaluation was then performed. Three μm coronal sections of heart grafts were stained with hematoxylin and eosin. Histopathological lesions were scored by two blinded observers using a 5-point scale according to combined assessments of edema (absent, perivascular/mild interstitial, subendocardial, diffuse interstitial, massive); inflammatory cell infiltration (absent, perivascular, subendocardial, diffuse interstitial, massive), and myocytolysis (absent, focal, massive): 0=minimum damage, 1+=mild damage, 2+=moderate damage, 3+=severe damage, and 4+=maximum damage.
Analysis of graft infiltrating monocytes/macrophages was performed through immunohistochemical detection of ED1-positive cells. Sections were stained using the peroxidase-antiperoxidase (PAP) technique, after incubation with mouse anti-rat ED 1 or control antibody (Santa Cruz Biotech, Santa Cruz, Calif., USA). Slides were counterstained with hematoxylin and eosin.
Statistical analysis was performed using SigmaStat statistical software (Jandel Scientific GmbH, Germany). Values are expressed as mean±SEM. Unpaired Student's t test was used to compare differences between values in histological scores. Difference in median graft survival time was evaluated using the Mann-Whitney Rank Sum Test. A probability value<0.05 was considered statistically significant.

[3] = Plasma nitrite (NO2-) determination after heart transplantation (Griess); type: in vivo, rat; details: all intervals (day 1, day 4, rejection)
Protocol: Plasma was separated by centrifugation, aliquoted, and stored at −80° C.
Nitric oxide determinations were performed. Specifically, plasma nitrite concentration was determined at times of sacrifice as a measure of nitric oxide release. Nitrates (NO3^−) were converted into nitrites (NO2^−) by treatment of serum with nitrate reductase (Boehringer Mannheim Italia SpA, Milan, Italy). After enzymatic reduction, samples were mixed with equal amounts of Griess reagent (sulfanilamide 1%, napthlethylenediamide 0.1% in phosphoric acid 0.25%). Samples were incubated at room temperature for 10 min and absorbency was measured at 540 nm using a microplate automatic reader.

[4] = depending upon the assay employed; cited from earlier work
proteolytic enzymes = details: cited from earlier work
[5] = 4 days after transplantation, vs untreated
[6] = day 1 after transplantation, vs untreated

Nle^4DPhe^7-α-MSH [NDP-α-MSH]
Median graft survival ([1]; 100 μg i.p. every 12 h from 1 h before transplantation until rejection, no immunosuppression, untreated 6 days, p<0.001): 10 days
Graft survival time, range ([1]; 100 μg i.p. every 12 h until rejection, untreated range 6-8): 9 to 11 days
ED1-positive cells infiltrating the graft [2, 5]: fewer and dispersed
Inflammation and edema [2, 5]: milder and mostly restricted to the subendocardial region
Histopathological score of heart grafts ([2]; 4 days after transplantation, untreated 10.8±0.80, p<0.01): 7.0±0.64
Histology of rejected hearts, treated vs untreated ([2]; at time of rejection): no significant differences
Inflammatory cell infiltration [2, 6]: much less
Intragraft edema [2, 6]: milder and generally restricted to the perivascular spaces
Histopathological score of heart grafts ([2]; day 1 after transplantation, mean±SEM, untreated 8.7±0.25, p<0.001): 3.0±0.90
Increases in plasma NO2- concentration vs untreated [3]: significantly lower
Activity relative to the natural molecule [4]: 10- to 1000 times
Inactivation by proteolytic enzymes (proteolytic enzymes): resistant
